Experimental data taken from paper PMC13080581, “Identification and characterization of vasoactive intestinal peptide receptor antagonists with high-affinity and potent anti-leukemia activity” (The Journal of Biological Chemistry, 2025).
Ends that are not written are not given here.

Experiments:
[1] = system: C1498ff cells; assay: C1498ff leukemia model in B6 albino mice, ANT308 schedules; format: in vivo, mouse; conditions: high-dose (100 μg)
Method: All experimental procedures involving animals were approved by the Institutional Animal Care and Use Committee (IACUC) at Emory University. On day 0, B6 mice were injected by tail vein injection (i.v.) with 1 × 10^6 C1498 cells. DBA/2 mice were injected subcutaneously (s.c.) with 1 x 10^5 P815-luciferase mastocytoma cells. Growth of luciferase + C1498ff in B6 albino recipients was assessed by bioluminescent imaging (BLI) after mice were anesthetized, injected intraperitoneally (i.p.) with luciferin substrate (15 μg/g mouse), and imaged using an IVIS imaging system, starting at day 6 before treatment and continuing once weekly. Albino B6 mice surviving to >60 days without evidence of AML (by luciferase assay) received a second injection of a two-fold higher dose of C1498 (2 × 10^6 cells). DBA/2 mice that received P815 cells and treatment with ANT308, and survived past 60 days, were rechallenged using 2 x 10^5 P815 cells. Lymphocyte kinetics and C1498 leukemia cell burden were analyzed weekly through pterygoid venous plexus blood collection in CD45.1+ B6.SJL recipients; CD45.2 C1498 tumor cells were differentiated from CD45.1 host cells by flow cytometry. Mice that reached endpoint conditions were euthanized and counted as dead on the next day. […]

[2] = in vitro; format: in vitro ADME; conditions: human, plasma
Description: Data were plotted using GraphPad Prism.

[3] = system: human T cells; conditions: 3 µM
[4] = target: T1, VPAC1 on Vipr2 KO murine T-cells (Mus musculus, UniProt P97751); assay: Immunostaining colocalization with VPAC1 on Vipr2 KO murine T-cells; format: cell-based; conditions: Pearson's correlation
T1 construct: Vipr2 knockout (KO) T-cells stained for VPAC1 (green); endogenous in cells; host or cells: T cells from Vipr2 knockout mice
T1 sequence (P97751 31-459): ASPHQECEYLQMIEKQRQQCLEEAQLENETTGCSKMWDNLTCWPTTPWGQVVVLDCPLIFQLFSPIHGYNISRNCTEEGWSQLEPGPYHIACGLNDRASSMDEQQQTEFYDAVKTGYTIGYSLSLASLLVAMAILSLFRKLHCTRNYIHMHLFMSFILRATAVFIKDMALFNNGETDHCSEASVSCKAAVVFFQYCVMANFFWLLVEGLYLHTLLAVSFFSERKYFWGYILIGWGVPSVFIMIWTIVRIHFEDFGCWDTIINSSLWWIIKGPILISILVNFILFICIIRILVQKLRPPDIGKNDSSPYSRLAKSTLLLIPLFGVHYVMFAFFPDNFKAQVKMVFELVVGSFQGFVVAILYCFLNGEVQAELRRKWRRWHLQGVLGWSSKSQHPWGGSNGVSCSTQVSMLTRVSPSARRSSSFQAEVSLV
Method: Merge + NucleusSupplementary Figure 5. Immunostaining showing 6xHis-ANT308, 6xHis-VIP, and 6xHis-Scrambled-sequence peptides colocalization with VPAC1 on murine T-cells surface. Isolated T-cells from naïve wild-type (WT) C57BL/6 mice were activated with α-CD3/α-CD28 beads and incubated with 10µM (A-F) ANT308-6xHis, (G-L) VIP-6xHis and (M-R) VIP fully SCRAM-6xHis in the presence of IL-2 (30 IU/mL) for 1 hour. The cells were fixed with 4% Paraformaldehyde, stained with VPAC1 (green), 6xHis-tag (magenta) & Hoechst (blue) and visualized on Cell-Tak coated glass-bottom plates. (A-C, G-I and M-O) en face view, (D,J & P) representative field view, (E, K & Q) 3D view, (F, L & R) line scan profiles showing colocalization patterns of ANT308-6xHis, VIP-6xHis and VIP-fully scrambled-6xHis with VPAC1 on T-cell membrane. Relative fluorescence intensity (RFI), arbitrary unit. (S) Quantification of co-localization using Pearson’s correlation coefficient (R-value). Data are shown as mean ± SD with individual data points (n=10). Statistical significance was determined by one-way Anova with post-hoc multiple comparisons. **** p < 0.0001, *** p < 0.001. Scale 2.5µm.
Supplementary Figure 6. […] (K) Quantification of co-localization using Pearson’s correlation coefficient (R-value). […] Statistical significance was determined by one-way Anova with post-hoc multiple comparisons. **** p < 0.0001. […]

[5] = In vivo plasma half-life of 6xHis-tagged peptides after i.v. injection, western blot; conditions: mouse, iv
Method: (§1) Plasma was collected at multiple time points post-injection and analyzed by SDS-PAGE using 12% polyacrylamide gel. Densitometry was performed using ImageJ and % peptide remaining was plotted using GraphPad Prism. The images were acquired using BioRad ChemiDoc Touch Imaging System with Image Lab Touch Software.

[6] = in vivo; conditions: mouse, iv
Method: as §1

[7] = target: VIP receptor (VIP-R) on human T cells (human (endogenous in human T cells)) (UniProt P32241)
Sequence of VIP receptor (VIP-R) on human T cells (human (endogenous in human T cells)) (P32241 31-457): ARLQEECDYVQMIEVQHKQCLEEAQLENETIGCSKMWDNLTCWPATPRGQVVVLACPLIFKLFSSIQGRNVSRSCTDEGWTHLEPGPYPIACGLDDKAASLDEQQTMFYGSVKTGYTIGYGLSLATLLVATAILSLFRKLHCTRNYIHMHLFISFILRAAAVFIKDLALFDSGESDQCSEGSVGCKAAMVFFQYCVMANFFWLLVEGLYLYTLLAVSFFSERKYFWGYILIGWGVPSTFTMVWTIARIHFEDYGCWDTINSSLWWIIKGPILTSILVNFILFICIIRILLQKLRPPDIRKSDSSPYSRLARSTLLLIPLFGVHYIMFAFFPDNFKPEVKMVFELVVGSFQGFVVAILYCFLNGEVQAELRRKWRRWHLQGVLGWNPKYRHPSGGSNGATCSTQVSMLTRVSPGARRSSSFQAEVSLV

In the case of “KPRRPYTSDYTRLRKQMAVKKYLNLILN-NH2 [ANT308]”, the “toxic effects in weight or behavior of treated mice” value [1] is reported as “did not produce any observable toxic effects”.

`CC[C@H](C)[C@H](NC(=O)[C@H](CO)NC(=O)[C@H](CC(N)=O)NC(=O)[C@H](CC(C)C)NC(=O)[C@H](Cc1ccc(O)cc1)NC(=O)[C@H](CCCCN)NC(=O)[C@H](CCCCN)NC(=O)[C@@H](NC(=O)[C@H](C)NC(=O)[C@H](CCSC)NC(=O)[C@H](CCC(N)=O)NC(=O)[C@H](CCCCN)NC(=O)[C@H](CCCNC(=N)N)NC(=O)[C@H](CC(C)C)NC(=O)[C@H](CCCNC(=N)N)NC(=O)[C@@H](NC(=O)[C@H](Cc1ccc(O)cc1)NC(=O)[C@H](CC(N)=O)NC(=O)[C@H](CC(=O)O)NC(=O)[C@@H](NC(=O)[C@H](Cc1ccccc1)NC(=O)[C@@H](NC(=O)[C@H](C)NC(=O)[C@H](CC(=O)O)NC(=O)[C@H](CO)NC(=O)[C@@H](N)Cc1c[nH]cn1)C(C)C)[C@@H](C)O)[C@@H](C)O)C(C)C)C(=O)N[C@@H](CC(C)C)C(=O)N[C@@H](CC(N)=O)C(=O)N[C@@H](Cc1c[nH]cn1)C(=O)N[C@@H](Cc1c[nH]cn1)C(=O)N[C@@H](Cc1c[nH]cn1)C(=O)N[C@@H](Cc1c[nH]cn1)C(=O)N[C@@H](Cc1c[nH]cn1)C(=O)N[C@@H](Cc1c[nH]cn1)C(N)=O` [VIP-6xHis, reference compound] gave a half-life [2] of about 15 min.

“KPRRPYTVNYTSLRKQIAVKKYLMLILN-NH2 [ANT195]” gave a T cell viability [3] of about 30%.

In the case of “YDDHTKLKINTARLVSAQSNVFNMLKYRHHHHHH-NH2 (C-terminus assumed) [VIP fully SCRAM-6xHis]”, the “co-localization with VPAC1 in Vipr2 KO murine T-cells” value [4] is reported as “shows no overlap” and the half-life [5] is reported as about 30 min.

Molecule “KPRRPYTSDYTRLRKQMAVKKYLNLILNHHHHHH-NH2 [ANT308-6xHis]” has a half-life [6] of about 15 min and a half-life [2] of about 15 min.

B1: ANT308 (peptide)
peptide: KPRRPYTSDYTRLRKQMAVKKYLNLILN-NH2
For B1, the CD69 expression on CD4+ or CD8+ pooled human T cells treated with increasing concentrations of ANT308 (T cell activation, flow cytometry) [7] was 0.3 to 0.4 µM.
